# “Also recorded” adds a separate entry of the source.
# Tests used:
# [1] = test system: elderly male and female volunteers; assay: Maximal aerobic capacity test (incremental cycle ergometer); type: in vivo, human
# Protocol: A stepwise incremental exercise test was performed on a cycle ergometer (Monarch 874E, Monark Exercise AB, Vansbro, Sweden). All participants were familiarized to the test procedure on a separate occasion prior to testing. Participants were seated in a standardized position. The test started with unloaded cycling, subjects were asked to maintain a cadence of 50 revolutions per minute (rpm), if the subject could not achieve 50 rpm they were encouraged to cycle as fast as the could (but not less than 40 rpm). Every two minutes the external load on the cycle ergometer was increased by 0.5 kg, this equated to a 25-Watt increase in workload at 50 rpm. Cardiac monitoring of heart rate, respiratory rate/minute ventilation and pulse oximeter for oxygen saturation were continuously recorded during the test.
# Analysis of Maximal Aerobic Capacity parameters was performed using an ANOVA model with treatment group as a factor. Workload was progressed in 2-minute staged increments from an initial 3 minutes unloaded cycling, to exhaust subjects over a 6- to 10-min period. The test was terminated when the participant reached volitional exhaustion or their cadence dropped by 10 rpm. At the end of each increment, work-rate watts, rating of perceived exertion (Borg RPE scale), heart rate (Polar Vantage chest heart rate monitor, Polar Electro, Finland) and 3-lead ECG were recorded.
# [2] = test system: bacterial reverse mutation assay (AMES test), mouse lymphoma and mouse micronucleus; design: method as in ref 17, 18; SRT2104 Investigator's Brochure; settings: preclinical; SRT2104 Investigator's Brochure; cited from earlier work
# CYP2C19 = settings: human liver microsomes; cited from earlier work
# CYP1A = test system: CYP1A; design: method as in ref 17, 18 (a number printed in a supplementary file, which may have a reference list of its own: not looked up in the article's list); settings: cultured hepatocytes, at the concentrations tested; cited from earlier work
# CYP3A4 = test system: CYP3A4; design: method as in ref 17, 18 (a number printed in a supplementary file, which may have a reference list of its own: not looked up in the article's list); settings: cultured hepatocytes, at the concentrations tested; cited from earlier work
# SIRT1 = test system: SIRT1; design: method as in JC Milne et al, 2007; settings: lowering of the Km for acetylated protein substrate; ref JC Milne et al, 2007; cited from earlier work
# healthy male subjects = test system: healthy male subjects; design: method as in SRT-2104-002; settings: 250 mg oral suspension and intravenous microdose of 100µg 14C-SRT2104, eight healthy male subjects; ref SRT-2104-002; cited from earlier work
# SIRT3 = settings: SIRT1 activation over SIRT3; ref SRT2104 Investigator's Brochure; cited from earlier work
smiles,measurement,setting,value
Cc1nc(-c2cccnc2)sc1C(=O)Nc1ccccc1-c1cn2c(CN3CCOCC3)csc2n1 [SRT2104],"RPE, range of change from baseline","[1]; 0.5g/day, day 27",-3-6
same,"TTC, range of change from baseline","[1]; 0.5g/day, day 27",-106 to 67 s
same,"TTC, mean change from baseline (SD)","[1]; 0.5g/day, day 27, p 0.004",-31 (50) sec
same,"RPE, mean change from baseline (SD)","[1]; 0.5g/day, day 27, p 0.962",0 (3)
same,decrease in exercise capacity (time to cessation for the staged bicycle assessment),"[1]; 0.5 g/day, day 27, p = 0.004",4%
same,"RPE, range of change from baseline","[1]; 2.0g/day, day 27",-3-1
same,"TTC, range of change from baseline","[1]; 2.0g/day, day 27",-29 to 45 s
same,change in exercise capacity,"[1]; 2.0g/day, day 27",no evidence for any changes
same,"TTC, mean change from baseline (SD)","[1]; 2.0g/day, day 27, p 0.292",9 (27) sec
same,"RPE, mean change from baseline (SD)","[1]; 2.0g/day, day 27, p 0.638",-1 (2)
same,genotoxicity,[2],not genotoxic
same,inhibition of CYP2C19,CYP2C19,not an inhibitor; also recorded: does not inhibit
same,induction of CYP1A,CYP1A,not a significant inducer
same,induction of CYP3A4,CYP3A4,not a significant inducer
same,increase in SIRT1 activity,SIRT1,approximately two-fold increase in activity
same,tolerability,healthy male subjects,well-tolerated
same,fold selectivity as compared to SIRT3,SIRT3,> 100

# — publication PMC3527451, “A Pilot Randomized, Placebo Controlled, Double Blind Phase I Trial of the Novel SIRT1 Activator SRT2104 in Elderly Volunteers” (PLoS ONE, 2012)
